Key:
σ1 receptors = target: T1, σ1 receptors (Rattus norvegicus, UniProt Q9R0C9); test: Radioreceptor binding assay, σ1 (3H-(+)-pentazocine, rat brain membrane); details: determined by ANSTO LifeSciences, read-out: Affinity σ1 (Ki)
T1 construct: aliquots of diluted rat brain membrane (300 μg of protein); from tissue; host or cells: male Sprague-Dawley rat brain membrane homogenate
Protocol: (§1) The test compounds were solubilised in DMSO and diluted in 50 mmol/L Tris-HCl (pH 8.0). Membrane homogenates were prepared from male Sprague-Dawley rat brains as previously described. The binding of σ ligands to σ1 and σ2 receptors was determined according to literature methods with minor modification. Briefly, the percentage of inhibition was determined by incubating, in triplicate, aliquots of diluted rat brain membrane (300 μg of protein) with 10^-11 to 10^-5 mol/L concentrations of the studied drugs in 50 mmol/L Tris-HCl (pH 8.0) with ^3H-(+)-pentazocine (3 nmol/L) at 37°C for 2.5 h for σ1 receptors or with ^3H-DTG (10 nmol/L) and (+)-pentazocine (1 μmol/L) at 25°C for 1.5 h for σ2 receptors. […] After incubation, the reaction was terminated by rapid filtration using a Brandel 48-well cell harvester (Brandel, Gaithersburg, MD, USA) over Whatman GF/B glass fibre filters that were soaked in a solution of 0.5% polyethyleneimine at 4°C for at least 2 h before use. […] The filters were collected and the amount of bound radioactivity was measured using a β-scintillation counter (Tri-Carb 2100TR, Packard Instrument Co., Downers Grove, IL, USA). The percentage inhibition of the studied drugs, at concentrations of 10^-5 and 10^-7 mol/L, was also determined for the cross activity at a number of other neuroreceptors (Caliper LifeSciences, MA, USA). […]

σ2 receptors = target: T2, σ2 receptors (Rattus norvegicus, UniProt Q5U3Y7); test: Radioreceptor binding assay, σ2 (3H-DTG + (+)-pentazocine, rat brain membrane); details: for Ki: rat brain membrane, 3H-DTG with (+)-pentazocine, determined by ANSTO LifeSciences, read-out: Affinity σ2 (Ki); for Selectivity σ2:σ1: ratio of Ki values, Table 2
T2 sequence (Q5U3Y7 1-176): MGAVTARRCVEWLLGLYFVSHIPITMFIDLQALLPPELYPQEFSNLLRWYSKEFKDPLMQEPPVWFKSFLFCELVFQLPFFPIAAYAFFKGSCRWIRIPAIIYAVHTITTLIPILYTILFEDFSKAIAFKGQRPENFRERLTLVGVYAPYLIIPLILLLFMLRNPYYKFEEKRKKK
Protocol: The test compounds were solubilised in DMSO and diluted in 50 mmol/L Tris-HCl (pH 8.0). Membrane homogenates were prepared from male Sprague-Dawley rat brains as previously described. The binding of σ ligands to σ1 and σ2 receptors was determined according to literature methods with minor modification. Briefly, the percentage of inhibition was determined by incubating, in triplicate, aliquots of diluted rat brain membrane (300 μg of protein) with 10^-11 to 10^-5 mol/L concentrations of the studied drugs in 50 mmol/L Tris-HCl (pH 8.0) with ^3H-(+)-pentazocine (3 nmol/L) at 37°C for 2.5 h for σ1 receptors or with ^3H-DTG (10 nmol/L) and (+)-pentazocine (1 μmol/L) at 25°C for 1.5 h for σ2 receptors. […] After incubation, the reaction was terminated by rapid filtration using a Brandel 48-well cell harvester (Brandel, Gaithersburg, MD, USA) over Whatman GF/B glass fibre filters that were soaked in a solution of 0.5% polyethyleneimine at 4°C for at least 2 h before use. Filters were washed three times with 5 mL of ice-cold wash buffer (50 mmol/L Tris HCl, pH 7.4). The filters were collected and the amount of bound radioactivity was measured using a β-scintillation counter (Tri-Carb 2100TR, Packard Instrument Co., Downers Grove, IL, USA). The percentage inhibition of the studied drugs, at concentrations of 10^-5 and 10^-7 mol/L, was also determined for the cross activity at a number of other neuroreceptors (Caliper LifeSciences, MA, USA). The IC50 values were then converted to apparent Ki values using the Cheng-Prusoff equation and radioligand Kd values.

Opioid, non-selective = test: Cross activity at neuroreceptors (Caliper LifeSciences): opioid; type: binding; details: determined by Caliper LifeSciences; read-out: Affinity Opioid, non-selective (IC50)
Protocol: as §1

Dopamine, non-selective = test: Cross activity at neuroreceptors (Caliper LifeSciences): dopamine; type: binding; details: determined by Caliper LifeSciences; read-out: Affinity Dopamine, non-selective (IC50)
Protocol: as §1

Serotonin, non-selective = test: Cross activity at neuroreceptors (Caliper LifeSciences): serotonin; type: binding; details: determined by Caliper LifeSciences; read-out: Affinity Serotonin, non-selective (IC50)
Protocol: as §1

CB1, non-selective = target: T3, CB1, non-selective (Homo sapiens, UniProt P21554); test: Cross activity at neuroreceptors (Caliper LifeSciences): CB1; type: binding; details: determined by Caliper LifeSciences; read-out: Affinity CB1, non-selective (IC50)
T3 construct: Caliper LifeSciences
Protocol: as §1

[1] = target: Muscarinic, non-selective; test: Cross activity at neuroreceptors (Caliper LifeSciences): muscarinic; type: binding; details: determined by Caliper LifeSciences; read-out: Affinity Muscarinic, non-selective (IC50)
Protocol: as §1

[2] = Lipophilicity by RP-HPLC (logP7.5); type: physicochemical; details: logP7.5, phosphate buffer pH 7.5
Protocol: The lipophilicity of SIG343 and SIG353 were assessed using RP-HPLC by determining the logP7.5 value using literature procedures.

[3] = rats, intravenous bolus; cited from earlier work

T1 sequence (Q9R0C9 whole entry): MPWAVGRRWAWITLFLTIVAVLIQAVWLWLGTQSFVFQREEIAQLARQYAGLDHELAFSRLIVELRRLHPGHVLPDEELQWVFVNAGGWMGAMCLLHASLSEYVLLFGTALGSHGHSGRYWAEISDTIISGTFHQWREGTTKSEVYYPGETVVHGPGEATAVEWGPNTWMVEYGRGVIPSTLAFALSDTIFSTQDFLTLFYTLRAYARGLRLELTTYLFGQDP
T3 sequence (P21554 whole entry): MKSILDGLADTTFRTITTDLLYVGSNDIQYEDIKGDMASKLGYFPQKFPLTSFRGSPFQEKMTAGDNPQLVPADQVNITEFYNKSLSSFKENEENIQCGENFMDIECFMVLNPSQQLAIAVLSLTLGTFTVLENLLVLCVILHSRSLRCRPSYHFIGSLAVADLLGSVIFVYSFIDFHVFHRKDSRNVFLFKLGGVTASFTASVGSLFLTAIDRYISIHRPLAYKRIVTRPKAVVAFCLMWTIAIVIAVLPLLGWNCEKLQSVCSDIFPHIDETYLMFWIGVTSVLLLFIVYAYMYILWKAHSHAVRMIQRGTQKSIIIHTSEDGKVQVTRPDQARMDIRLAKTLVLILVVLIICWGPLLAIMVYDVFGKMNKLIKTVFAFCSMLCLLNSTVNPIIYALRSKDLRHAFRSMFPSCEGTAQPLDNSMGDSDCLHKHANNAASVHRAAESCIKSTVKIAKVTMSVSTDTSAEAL

Row | Compound | Ki (σ1 receptors) [µM] | Ki (σ2 receptors) [µM] | Selectivity σ2:σ1 (σ2 receptors) | IC50 (Opioid, non-selective) [µM] | IC50 (Dopamine, non-selective) [µM] | IC50 (Serotonin, non-selective) [µM] | IC50 (CB1, non-selective) [µM] | IC50 [1] [µM] | chromatographic logP [2] | Terminal half-life [3] [h]
1 | COc1cc2c(cc1OC)CN(CCCCN1C(=O)c3ccc(F)cc3C1=O)CC2 [SIG343, 2-(4-(6,7-Dimethoxy-3,4-dihydroisoquinolin-2(1H)-yl)butyl)-5-fluoroisoindoline-1,3-dione] | 1.6 | 0.008 | 200 | > 10 | > 10 | > 10 | > 10 | > 10 | 3.11 ± 0.08 | 
2 | COc1cc2c(cc1OC)CN(CCCCCN1C(=O)c3ccc(F)cc3C1=O)CC2 [SIG353, 2-(5-(6,7-Dimethoxy-3,4-dihydroisoquinolin-2(1H)-yl)pentyl)-5-fluoroisoindoline-1,3-dione] | 0.266 | 0.0024 | 110 | > 10 | > 10 | > 10 | > 10 | > 10 | 3.47 ± 0.09 | 
3 | O=C(CCCN1CCC(O)(c2ccc(Cl)cc2)CC1)c1ccc(F)cc1 [haloperidol] |  |  |  |  |  |  |  |  |  | 1.5

From publication PMC3878827, “Synthesis and biological characterisation of ^18F-SIG343 and ^18F-SIG353, novel and high selectivity σ2 radiotracers, for tumour imaging properties” (EJNMMI Research, 2013)
